# Publication PMC10673511, “Design, Synthesis and Bioactivity Evaluation of Heterocycle-Containing Mono- and Bisphosphonic Acid Compounds” (Molecules, 2023)
# Like-named read-outs stand apart in the source and are kept apart here.
# Tests used:
# Amaranthus retroflexus = assay: Post-emergence herbicidal inhibition assay, AR; format: in vivo; settings: 300 g ai/ha spray, two weeks after treatment; for Loss of Weight (%) AR: fresh weighing
# Experimental: (§1) The post-emergence activity of compounds against EC and Amaranthus retroflexus (AR) was determined at a dose of 300 g ai/ha. The model plants initially grow as seedlings, and a few days prior to treatment, five seedlings with similar growth conditions for the plant were transplanted into one pot containing nutrient soil. The test solutions were prepared by dissolving the compounds in water containing DMF and Tween-80 and sprayed when the plant grew to the 1~2 leaf stage. The herbicidal activity was evaluated via visual observation and fresh weighing after two weeks of treatment.
# Arabidopsis thaliana [1] = assay: Arabidopsis growth inhibition assay (24-well plates, green channel pixel value); settings: for EC50 / pest or weed control at 100 µg/mL: Arabidopsis thaliana, 240 h; for EC50: read-out: EC50 against Arabidopsis growth; for pest or weed control at 100 µg/mL: read-out: InR (%) against Arabidopsis
# Echinochloa crus-galli [2] = assay: Post-emergence herbicidal inhibition assay, EC; format: in vivo; settings: for Loss of Weight (%) EC / Visual Evaluation EC: 300 g ai/ha spray, two weeks after treatment; for Loss of Weight (%) EC: fresh weighing
# Experimental: as §1
# Echinochloa crus-galli [3] = assay: Pre-emergence herbicidal inhibition assay, Petri dish test, EC; format: in vivo; settings: for EC50: Echinochloa crus-galli, 168 h; for Relative activity ratio (EC root) / Relative activity ratio (EC stalk): relative to FOS
# Experimental: (§2) The pre-emergence activity of the compounds against monocot Echinochloa crus-galli (EC) and dicot Brassica napus L. (BN) was evaluated using the standard Petri dish test. The compounds were dissolved in DMF, emulsified with Tween-80 and diluted with water to form stock solutions, each of which was further diluted to a gradient of 100, 50, 25, 10 and 1 mg/L for test. The test solutions were added to Petri dishes lined with a filter paper, on which 10 seeds of EC and BN were placed. After cultured in an intelligent climate chamber with a humidity of 65% at 26 °C for 7 days, the corresponding EC50 values were calculated.
# [4] = target: recombinant E. coli DXR (EcDXR) (Escherichia coli, UniProt P45568); assay: biochemical; settings: for inhibition at 100 µM: read-out: InR (%) on DXR enzyme
# Sequence of recombinant E. coli DXR (EcDXR) (P45568 whole entry): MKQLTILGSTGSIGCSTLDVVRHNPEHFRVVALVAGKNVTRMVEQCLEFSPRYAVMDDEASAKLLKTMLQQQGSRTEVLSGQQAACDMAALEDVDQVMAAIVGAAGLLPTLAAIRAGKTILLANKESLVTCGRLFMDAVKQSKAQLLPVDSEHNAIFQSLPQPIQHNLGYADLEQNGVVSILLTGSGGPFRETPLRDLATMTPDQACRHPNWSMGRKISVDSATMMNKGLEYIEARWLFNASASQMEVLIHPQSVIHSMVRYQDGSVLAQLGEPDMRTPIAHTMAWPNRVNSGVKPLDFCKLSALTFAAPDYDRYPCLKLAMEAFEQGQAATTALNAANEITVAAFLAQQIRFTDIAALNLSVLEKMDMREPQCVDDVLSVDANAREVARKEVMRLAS
# Brassica napus L. = assay: Pre-emergence herbicidal inhibition assay, Petri dish test, BN; format: in vivo; settings: for EC50: Brassica napus, 168 h; for Relative activity ratio (BN root) / Relative activity ratio (BN stalk): relative to FOS
# Experimental: as §2
# Arabidopsis thaliana [5] = assay: DMAPP rescue on Arabidopsis; format: in vivo; settings: FOS 40 mg/L; for rescue of developmental arrest and bleaching by DMAPP (change of pixel values): 13e 20 mg/L, t-test
# Experimental: The DMAPP rescue on Arabidopsis was conducted using the afore-mentioned culture conditions. […] To one of the two species in each group, an additional 150 μg of DMAPP (Aladdin) was added. After 10 days of cultivation, the green channel pixel values of Arabidopsis in each well were measured. A two-tailed paired Student’s t-test was used to compare the two species within the same group, and p < 0.05 indicates a statistically significant difference.
# MtDXR = test system: MtDXR; set-up: method as in PMID 21824775; settings: cited from earlier work
# [6] = root, 7 days, read-out: EC50 EC Root
# [7] = stalk, 7 days, read-out: EC50 EC Stalk
# [8] = root, 7 days, read-out: EC50 BN Root
# [9] = stalk, 7 days, read-out: EC50 BN Stalk
structure (smiles),measurement,setting,value
Cc1onc(O)c1CCP(=O)(O)O [Compound 6a],Loss of Weight (%) AR,Amaranthus retroflexus,35.6%
same,Visual Evaluation AR,Amaranthus retroflexus,+ (“+”: ≥20%)
same,EC50,Arabidopsis thaliana [1],28.6 ± 3.9 mg/L
same,pest or weed control at 100 µg/mL,Arabidopsis thaliana [1],90.4%
same,Loss of Weight (%) EC,Echinochloa crus-galli [2],30.8%
same,Visual Evaluation EC,Echinochloa crus-galli [2],+ (“+”: ≥20%)
same,EC50,Echinochloa crus-galli [3]; read-out: EC50 EC Root,24 mg/L
same,EC50,Echinochloa crus-galli [3]; read-out: EC50 EC Stalk,18.9 mg/L
same,Relative activity ratio (EC root),Echinochloa crus-galli [3],1.7 fold
same,Relative activity ratio (EC stalk),Echinochloa crus-galli [3],2.0 fold
same,inhibition at 100 µM,[4],15.8%
same,EC50,Brassica napus L.; read-out: EC50 BN Root,17.3 mg/L
same,EC50,Brassica napus L.; read-out: EC50 BN Stalk,10.5 mg/L
same,Relative activity ratio (BN root),Brassica napus L.,2.0 fold
same,Relative activity ratio (BN stalk),Brassica napus L.,3.1 fold
Cc1onc(O)c1CC(P(=O)(O)O)P(=O)(O)O [Compound 13a],Loss of Weight (%) AR,Amaranthus retroflexus,52.3%
same,Visual Evaluation AR,Amaranthus retroflexus,++ (“++”: ≥40%)
same,EC50,Arabidopsis thaliana [1],21.6 ± 3.8 mg/L
same,pest or weed control at 100 µg/mL,Arabidopsis thaliana [1],100%
same,Loss of Weight (%) EC,Echinochloa crus-galli [2],35.8%
same,Visual Evaluation EC,Echinochloa crus-galli [2],+ (“+”: ≥20%)
same,EC50,Echinochloa crus-galli [3]; [6],27.1 mg/L
same,EC50,Echinochloa crus-galli [3]; [7],10.2 mg/L
same,Relative activity ratio (EC root),Echinochloa crus-galli [3],1.5 fold
same,Relative activity ratio (EC stalk),Echinochloa crus-galli [3],3.8 fold
same,IC50,[4],77.9 µM
same,inhibition at 100 µM,[4],60.2%
same,EC50,Brassica napus L.; [8],26.9 mg/L
same,EC50,Brassica napus L.; [9],8.5 mg/L
same,Relative activity ratio (BN root),Brassica napus L.,1.3 fold
same,Relative activity ratio (BN stalk),Brassica napus L.,3.9 fold
CC(C)c1onc(O)c1CC(P(=O)(O)O)P(=O)(O)O [Compound 13d],Loss of Weight (%) AR,Amaranthus retroflexus,45.7%
same,Visual Evaluation AR,Amaranthus retroflexus,++ (“++”: ≥40%)
same,EC50,Arabidopsis thaliana [1],23.1 ± 1.9 mg/L
same,pest or weed control at 100 µg/mL,Arabidopsis thaliana [1],93.2%
same,Loss of Weight (%) EC,Echinochloa crus-galli [2],34.9%
same,Visual Evaluation EC,Echinochloa crus-galli [2],+ (“+”: ≥20%)
same,EC50,Echinochloa crus-galli [3]; [6],27.2 mg/L
same,EC50,Echinochloa crus-galli [3]; [7],13.5 mg/L
same,Relative activity ratio (EC root),Echinochloa crus-galli [3],1.5 fold
same,Relative activity ratio (EC stalk),Echinochloa crus-galli [3],2.8 fold
same,inhibition at 100 µM,[4],14%
same,EC50,Brassica napus L.; [8],25.2 mg/L
same,EC50,Brassica napus L.; [9],11 mg/L
same,Relative activity ratio (BN root),Brassica napus L.,1.4 fold
same,Relative activity ratio (BN stalk),Brassica napus L.,3.0 fold
O=P(O)(O)C(Cc1c(O)noc1C(F)(F)F)P(=O)(O)O [Compound 13e],rescue of developmental arrest and bleaching by DMAPP (change of pixel values),Arabidopsis thaliana [5]; DMAPP 150 mg/L,did not show a significant increase
same,Loss of Weight (%) AR,Amaranthus retroflexus,70.3%
same,Visual Evaluation AR,Amaranthus retroflexus,+++ (“+++”: ≥60%)
same,EC50,Arabidopsis thaliana [1],7.8 ± 1.2 mg/L
same,pest or weed control at 100 µg/mL,Arabidopsis thaliana [1],100%
same,fold inhibitory activity on Arabidopsis relative to FOS,Arabidopsis thaliana [1]; from EC50 values,3.7 fold
same,Loss of Weight (%) EC,Echinochloa crus-galli [2],53.5%
same,Visual Evaluation EC,Echinochloa crus-galli [2],++ (“++”: ≥40%)
same,"fold more active than FOS, inhibition rate on EC via fresh weighing","Echinochloa crus-galli [2]; post-emergence, 300 g ai/ha",1.0 fold
same,EC50,Echinochloa crus-galli [3]; [6],7.4 mg/L
same,EC50,Echinochloa crus-galli [3]; [7],4.1 mg/L
same,Relative activity ratio (EC root),Echinochloa crus-galli [3],5.4 fold
same,Relative activity ratio (EC stalk),Echinochloa crus-galli [3],9.4 fold
same,inhibition at 100 µM,[4],54.9%
same,EC50,Brassica napus L.; [8],10.7 mg/L
same,EC50,Brassica napus L.; [9],2.3 mg/L
same,Relative activity ratio (BN root),Brassica napus L.,3.2 fold
same,Relative activity ratio (BN stalk),Brassica napus L.,14.3 fold
CC1(C)CON(CCCC(P(=O)(O)O)P(=O)(O)O)C1=O [Compound 20],Loss of Weight (%) AR,Amaranthus retroflexus,23.6%
same,Visual Evaluation AR,Amaranthus retroflexus,+ (“+”: ≥20%)
same,EC50,Arabidopsis thaliana [1],> 100 mg/L
same,pest or weed control at 100 µg/mL,Arabidopsis thaliana [1],47.9%
same,Loss of Weight (%) EC,Echinochloa crus-galli [2],22.9%
same,Visual Evaluation EC,Echinochloa crus-galli [2],+ (“+”: ≥20%)
same,EC50,Echinochloa crus-galli [3]; [6],40 mg/L
same,EC50,Echinochloa crus-galli [3]; [7],25.2 mg/L
same,Relative activity ratio (EC root),Echinochloa crus-galli [3],1.0 fold
same,Relative activity ratio (EC stalk),Echinochloa crus-galli [3],1.5 fold
same,inhibition at 100 µM,[4],29.5%
same,EC50,Brassica napus L.; [8],34.6 mg/L
same,EC50,Brassica napus L.; [9],8.2 mg/L
same,Relative activity ratio (BN root),Brassica napus L.,1.0 fold
same,Relative activity ratio (BN stalk),Brassica napus L.,4.0 fold
same,melting point,,> 250 °C
"O=CN(O)CCCP(=O)(O)O [FOS, Fosmidomycin, reference compound]",rescue of developmental arrest and bleaching by DMAPP (change of pixel values),Arabidopsis thaliana [5]; DMAPP 150 mg/L,rescued
same,"green channel pixel value of Arabidopsis images, without DMAPP",Arabidopsis thaliana [5]; 10 days,"32,789"
same,"green channel pixel value of Arabidopsis images, with DMAPP","Arabidopsis thaliana [5]; DMAPP 150 mg/L, 10 days","54,164"
same,Loss of Weight (%) AR,Amaranthus retroflexus,31.5%
same,Visual Evaluation AR,Amaranthus retroflexus,+ (“+”: ≥20%)
same,EC50,Arabidopsis thaliana [1],27.5 ± 3.1 mg/L
same,pest or weed control at 100 µg/mL,Arabidopsis thaliana [1],86.8%
same,IC50,MtDXR,0.08 µM
same,Loss of Weight (%) EC,Echinochloa crus-galli [2],27.4%
same,Visual Evaluation EC,Echinochloa crus-galli [2],+ (“+”: ≥20%)
same,EC50,Echinochloa crus-galli [3]; [6],40.2 mg/L
same,EC50,Echinochloa crus-galli [3]; [7],38.4 mg/L
same,inhibition at 100 µM,[4],98.7%
same,EC50,Brassica napus L.; [8],34.7 mg/L
same,EC50,Brassica napus L.; [9],32.9 mg/L
